Measurements from ChEMBL document CHEMBL5614419, “Discovery of novel BCL6-Targeting PROTACs with effective antitumor activities against DLBCL in vitro and in vivo” (Eur J Med Chem, 2024).
Active and inactive are the calls of the source. The rule behind the calls is not given here.

Tests used:
[1] = molecular target: T1, Protein cereblon/B-cell lymphoma 6 protein (Homo sapiens, UniProt Q96SW2+P41182); assay: PROTAC activity at CRBN/BCL6 in BCL6-dependent human SU-DHL-4 cells assessed as induction of BCL6 degradation by measuring degradation rate at 1 uM incubated for 48 hrs by Western blot analysis relative to control; assay type: cell-based
SUD4 [2] = assay: Antiproliferative activity against BCL6-dependent human SU-DHL-4 cells assessed as inhibition of cell growth at 10 uM measured after 6 days by MTT assay relative to control; assay type: functional; conditions: SU-DHL-4, 144 h, time 6 day
DOHH-2 = assay: Antiproliferative activity against BCL6-dependent human DOHH-2 cells assessed as inhibition in cell growth measured after 6 days by MTS assay; conditions: DOHH-2, 144 h
SUD4 [3] = assay: Antiproliferative activity against BCL6-dependent human SU-DHL-4 cells assessed as inhibition in cell growth measured after 6 days by MTT assay; conditions: SU-DHL-4, 144 h
SU-DHL-6 = assay: Antiproliferative activity against BCL6-dependent human SU-DHL-6 cells assessed as inhibition in cell growth measured after 6 days by MTT assay; conditions: SU-DHL-6, 144 h
[4] = (§1) Cytotoxicity against HEK293T cells assessed as inhibition in cell growth measured after 6 days by MTT assay; assay type: toxicity, cell-based, HEK-293T; conditions: human, HEK293T cells
HEK-293T = assay: as §1; assay type: toxicity, cell-based; conditions: human, hek-293t, 144 h; time 6 day
[5] = (§2) Cytotoxicity against human WI-38 VA13 cells assessed as inhibition in cell growth measured after 6 days by MTT assay; assay type: toxicity, cell-based; conditions: WI-38 VA13 cells
WI-38 VA13 = assay: as §2; assay type: toxicity, cell-based; conditions: wi-38 va13, 144 h, time 6 day
[6] = Cmax in male Sprague-Dawley rat at 10 mg/kg, ip measured upto 24 hrs by LC-MS/MS analysis; assay type: ADME, organism-based; conditions: in vivo
[7] = Cmax in male Sprague-Dawley rat at 20 mg/kg, po measured upto 24 hrs by LC-MS/MS analysis; assay type: ADME, organism-based; conditions: in vivo
[8] = Tmax in male Sprague-Dawley rat at 10 mg/kg, ip measured upto 24 hrs by LC-MS/MS analysis; assay type: ADME, organism-based; conditions: in vivo
[9] = Half life in male Sprague-Dawley rat at 10 mg/kg, ip measured upto 24 hrs by LC-MS/MS analysis; assay type: ADME, organism-based; conditions: in vivo
[10] = AUC (0 to t) in male Sprague-Dawley rat at 10 mg/kg, ip measured upto 24 hrs by LC-MS/MS analysis; assay type: ADME, organism-based; conditions: in vivo
[11] = AUC (0 to infinity) in male Sprague-Dawley rat at 20 mg/kg, po measured upto 24 hrs by LC-MS/MS analysis; assay type: ADME, organism-based; conditions: in vivo
[12] = MRT (0 to t) in male Sprague-Dawley rat at 10 mg/kg, ip measured upto 24 hrs by LC-MS/MS analysis; assay type: ADME, organism-based; conditions: in vivo
[13] = molecular target: T1, Protein cereblon/B-cell lymphoma 6 protein; assay: PROTAC activity at CRBN/BCL6 in human SU-DHL-4 cells assessed as induction of BCL6 degradation incubated for 48 hrs by Western blot analysis; assay type: cell-based
[14] = molecular target: T1, Protein cereblon/B-cell lymphoma 6 protein; assay: PROTAC activity at CRBN/BCL6 in human SU-DHL-4 cells assessed as induction of BCL6 degradation by measuring maximal efficacy incubated for 48 hrs by Western blot analysis relative to control; assay type: cell-based
[15] = molecular target: T1, Protein cereblon/B-cell lymphoma 6 protein; assay: PROTAC activity at CRBN/BCL6 in human DOHH-2 cells assessed as induction of BCL6 degradation incubated for 48 hrs by Western blot analysis; assay type: cell-based
[16] = molecular target: T1, Protein cereblon/B-cell lymphoma 6 protein; assay: PROTAC activity at CRBN/BCL6 in human SU-DHL-4 cells assessed as reduction in half life BCL6 at 1 uM preincubated with compound for 24 hrs followed by CHX addition and measured after 4 hrs by Western blot analysis; assay type: cell-based; conditions: time 28.0 hrs
SUD4 [17] = assay: Upregulation of p21 protein level in human SU-DHL-4 cells incubated for 48 hrs by Western blot analysis; assay type: functional, cell-based; conditions: dose 0.1-10 µM
SUD4 [18] = assay: Upregulation of p21 protein level in human SU-DHL-4 cells at 5 uM by Western blot analysis; assay type: functional, cell-based; conditions: time 12-72 hrs, TDE = time-dependent effect
SUD4 [19] = assay: Upregulation of p21 protein level in human SU-DHL-4 cells at 5 uM preincubated for 48 hrs followed by compound elution and measured after 72 hrs by Western blot analysis; assay type: functional, cell-based
SUD4 [20] = assay: Induction of cell cycle arrest in human SU-DHL-4 cells assessed as accumulation of cells at G1 phase incubated for 72 hrs by flow cytometry analysis; assay type: functional, cell-based; conditions: dose 0.1-10 µM
SUD4 [21] = assay: Induction of cell cycle arrest in human SU-DHL-4 cells assessed as increase in G1 phase cell population at 10 uM measured after 72 hrs by flow cytometry analysis (reference value: 61.4%); assay type: functional
[22] = Antitumor activity against human SU-DHL-4 cells xenografted in female nude nu/nu mouse assessed as tumor growth inhibition at 10 mg/kg, ip measured after 21 days by microcaliper based analysis relative to control; assay type: functional, SUD4; conditions: SU-DHL-4, 504 h, time 21 day, read-out: TGI
[23] = Antitumor activity against human SU-DHL-4 cells xenografted in female nude nu/nu mouse assessed as tumor growth inhibition at 20 mg/kg, ip measured after 21 days by microcaliper based analysis relative to control; assay type: functional, SUD4; conditions: SU-DHL-4, 504 h, time 21 day, read-out: TGI
[24] = Antitumor activity against human SU-DHL-4 cells xenografted in female nude nu/nu mouse assessed as tumor growth inhibition at 40 mg/kg, ip measured after 21 days by microcaliper based analysis relative to control; assay type: functional, SUD4; conditions: SU-DHL-4, 504 h, time 21 day, read-out: TGI
[25] = molecular target: T1, Protein cereblon/B-cell lymphoma 6 protein; assay: In vivo PROTAC activity at CRBN/BCL6 in female nude nu/nu mouse model xenografted with human SU-DHL-4 cells assessed as increase in p21 protein level in tumor at 40 mg/kg, ip measured after 5 hrs of last dose by Western blot analysis; assay type: functional, organism-based; conditions: SUD4
[26] = molecular target: T1, Protein cereblon/B-cell lymphoma 6 protein; assay: In vivo PROTAC activity at CRBN/BCL6 in female nude nu/nu mouse model xenografted with human SU-DHL-4 cells assessed as increase in p27 protein level in tumor at 40 mg/kg, ip measured after 5 hrs of last dose by Western blot analysis; assay type: functional, organism-based; conditions: SUD4
[27] = Resistance index, ratio of IC50 for human DOHH2/Ib cells to IC50 for DOHH2 cells; assay type: functional
SUD4 [28] = assay: Induction of cell cycle arrest in human SU-DHL-4 cells assessed as G1 phase arrest at 500 nM in presence of Ibrutinib incubated for 72 hrs by flow cytometry; assay type: functional, cell-based
SUD4 [29] = assay: Upregulation of CDKN1B mRNA level in human SU-DHL-4 cells at 10 uM incubated for 48 hrs by RT-qPCR analysis; assay type: functional, cell-based
SUD4 [30] = assay: Upregulation of p27 protein level in human SU-DHL-4 cells incubated for 48 hrs by Western blot analysis; assay type: functional, cell-based; conditions: dose 0.1-10 µM
SUD4 [31] = assay: Upregulation of p27 protein level in human SU-DHL-4 cells at 5 uM by Western blot analysis; assay type: functional, cell-based; conditions: time 12-72 hrs, TDE = time-dependent effect
SUD4 [32] = assay: Induction of apoptosis in human SU-DHL-4 cells at 10 uM; assay type: functional, cell-based
[33] = test system: Ibrutinib resistant DOHH2 cell; assay: Upregulation of p27 protein level in human Ibrutinib resistant DOHH2 cells at 0.1 to 10 uM incubated for 48 hrs by Western blot analysis; assay type: functional, cell-based; conditions: dose 0.1-10 µM

T1 sequence (Q96SW2 whole entry, looked up, other chains not shown): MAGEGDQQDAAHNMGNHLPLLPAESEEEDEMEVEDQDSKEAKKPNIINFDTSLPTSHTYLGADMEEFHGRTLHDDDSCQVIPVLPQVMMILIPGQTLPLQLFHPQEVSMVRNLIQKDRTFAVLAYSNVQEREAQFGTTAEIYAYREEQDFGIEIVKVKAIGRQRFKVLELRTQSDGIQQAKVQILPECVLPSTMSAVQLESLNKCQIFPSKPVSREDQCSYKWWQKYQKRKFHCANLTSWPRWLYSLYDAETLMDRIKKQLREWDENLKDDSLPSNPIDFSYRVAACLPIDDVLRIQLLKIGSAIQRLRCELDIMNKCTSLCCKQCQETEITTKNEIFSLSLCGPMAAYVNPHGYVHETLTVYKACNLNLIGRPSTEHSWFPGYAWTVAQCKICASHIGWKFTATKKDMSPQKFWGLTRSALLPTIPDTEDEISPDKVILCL

COc1cc(Nc2nc(N3CCN(CCOCCNc4cccc5c4C(=O)N(C4CCC(=O)NC4=O)C5=O)CC3)ncc2F)ccc1NC(=O)c1ccc(C2=CCCC2)s1 (centres undefined)
Activity [1]: 81.8% | inhibition at 10 µM (SUD4 [2]): 92.6% | IC50 (DOHH-2): 56.2 nM | IC50 (SUD4 [3]): 399 nM | IC50 (SU-DHL-6): 451 nM | IC50 at 6 days [4]: > 10000 nM | Activity (HEK-293T): Dose-Dependent Effect | IC50 at 6 days [5]: > 10000 nM | Activity (WI-38 VA13): Dose-Dependent Effect | Cmax [6]: 3820 ng/mL | Cmax [7]: 703 ng/mL | Tmax [8]: 2.67 h | half-life [9]: 2.59 h | AUC(0-t) at 24 h [10]: 33800 ng·h/mL | AUC(0-inf) [11]: 2330 ng·h/mL | MRT last at 24 h [12]: 5.3 h | Activity [13]: Dose-Dependent Effect | DC50 [13]: 676 nM | Emax [14]: 93% | Activity [15]: Dose-Dependent Effect | DC50 [15]: 558 nM | Activity [16]: Active | Activity (SUD4 [17]): Dose-Dependent Effect | Activity (SUD4 [18]): Tde | Activity (SUD4 [19]): Active | Activity (SUD4 [20]): Dose-Dependent Effect | Activity (SUD4 [21]): 93.3% | inhibition in vivo at 10 mg/kg [22]: 22.2% | inhibition in vivo at 20 mg/kg [23]: 47.4% | inhibition in vivo at 40 mg/kg [24]: 71.8% | Activity [25]: Active | Activity [26]: Active | Ratio IC50 [27]: 31.7 | Activity (SUD4 [28]): Active | Activity (SUD4 [29]): Active | Activity (SUD4 [30]): Dose-Dependent Effect | Activity (SUD4 [31]): Tde | Activity (SUD4 [32]): inactive | Activity [33]: Active
